According to patent publication US7345144B2, “Cyclic peptides for treatment of cachexia” (Palatin Technologies, Inc., priority 2001, dated 2008):

Tests used:
[1] = IV feeding study in male Sprague-Dawley rats; format: in vivo, rat; conditions: 1 mg/kg, 24 hour period
Procedure: (§1) Change in food intake and body weight is evaluated for selected peptides. Male Sprague-Dawley rats are obtained from Taconic (Germantown, N.Y.). Animals are individually housed in conventional plexiglass hanging cages and maintained on a controlled 12 hour on/off light cycle. Water and powdered (LabDiet, 5P00 Prolab RMH 3000) or pelleted (Harlan Teklad 2018 18% Protein Rodent Diet) food is provided ad libitum. For 1 week before treatment, 24-hour food intake and body weight change is recorded to assess a baseline for the group during vehicle treatment. The rats are dosed IV or IP with vehicle or selected peptides (0.5-3 mg/kg). The changes in body weight and food intake for the 24 hour period after dosing are determined. The changes in body weight and food intake for the 48 hour and 72 hour periods after dosing are also measured to determined reversal of changes in body weight and food intake effects back to baseline levels.
Briefly, male Sprague-Dawley rats (300-350 g) were individually housed in shoe box cages with a 12 hour light/dark period. Food intake and body weights were monitored for 24 hours prior to the start of the study. Rats were randomized by body weight and then dosed just before lights-off with the compound of Example 11 or the same volume of vehicle. A pre-weighed amount of food was provided and food intake was determined at 2, 4, 20 and 24 hours.

[2] = biological target: T1, hMC3-R (Homo sapiens, UniProt P41968); test: cAMP functional assay, hMC3-R (HEK-293 cells); format: cell-based; parameters: expressed in transfected cells; host or cells: HEK-293
[3] = biological target: T2, MC1-R (Mus musculus, UniProt Q01727); test: cAMP functional assay, MC1-R (B-16 mouse melanoma cells); format: cell-based; conditions: read-out: EC50 as to MC1-R
[4] = biological target: hMC4-R (Homo sapiens, UniProt P32245); test: Competitive inhibition binding assay using [I125]-NDP-α-MSH, hMC4-R (HEK-293 membranes); conditions: read-out: Ki (nM) MC4-R; HEK-293 cells transfected with hMC4-R
[5] = ICV feeding study in rats; format: in vivo; conditions: rat, 21 hours
Procedure: as §1, with “peptides. Rats with indwelling intracerebroventricular cannulas (ICV rats)” for “peptides. Male Sprague-Dawley rats”, “from Hilltop Lab Animals, Inc. (Scottdale, Pa.).” for “from Taconic (Germantown, N.Y.).”, “dosed ICV” for “dosed IV or IP”, “peptides (0.1-3 nmol).” for “peptides (0.5-3 mg/kg).”, “to determine” for “to determined”
All animals were dosed on the first day with saline ICV, and given a pre-weighed food bowl with food weight recorded at 2 and 21 hours post-ICV injection. On day 2, animals were randomized based on the 21 hour food consumption, with animals eliminated due to low food consumption or food spills. […] Food weights were again recorded at 2, 4, 21 and 24 hours post-ICV injection. In some instances, multiple different tests were conducted with each group containing between 8 and 12 members; the average value is given.

[6] = biological target: T2, MC1-R; test: Competitive inhibition binding assay using [I125]-NDP-α-MSH, MC1-R (B-16 mouse melanoma cell membranes); conditions: read-out: Ki (nM) MC1-R; B-16 mouse melanoma cells
[7] = biological target: T1, hMC3-R; test: Competitive inhibition binding assay using [I125]-NDP-α-MSH, hMC3-R (HEK-293 membranes); conditions: read-out: Ki (nM) MC3-R; HEK-293 cells transfected with hMC3-R

T1 sequence (P41968 whole entry): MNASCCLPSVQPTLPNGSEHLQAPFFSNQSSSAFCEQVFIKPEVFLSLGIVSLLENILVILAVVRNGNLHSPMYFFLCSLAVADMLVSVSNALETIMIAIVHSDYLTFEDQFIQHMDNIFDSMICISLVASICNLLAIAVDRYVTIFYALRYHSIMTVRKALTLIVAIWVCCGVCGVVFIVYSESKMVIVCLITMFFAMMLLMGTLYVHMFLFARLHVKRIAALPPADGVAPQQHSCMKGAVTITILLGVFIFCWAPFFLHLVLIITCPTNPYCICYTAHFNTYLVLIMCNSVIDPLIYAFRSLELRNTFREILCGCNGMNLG
T2 sequence (Q01727 whole entry): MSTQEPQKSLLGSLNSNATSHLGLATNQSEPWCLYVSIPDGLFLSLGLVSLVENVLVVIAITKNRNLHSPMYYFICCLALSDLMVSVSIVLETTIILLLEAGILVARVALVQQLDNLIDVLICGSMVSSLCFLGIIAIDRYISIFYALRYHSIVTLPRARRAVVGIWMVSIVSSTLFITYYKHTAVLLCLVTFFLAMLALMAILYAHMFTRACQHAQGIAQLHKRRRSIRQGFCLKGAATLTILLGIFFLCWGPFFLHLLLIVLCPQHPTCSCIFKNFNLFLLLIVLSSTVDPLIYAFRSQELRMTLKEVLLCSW
hMC4-R, sequence (P32245 whole entry): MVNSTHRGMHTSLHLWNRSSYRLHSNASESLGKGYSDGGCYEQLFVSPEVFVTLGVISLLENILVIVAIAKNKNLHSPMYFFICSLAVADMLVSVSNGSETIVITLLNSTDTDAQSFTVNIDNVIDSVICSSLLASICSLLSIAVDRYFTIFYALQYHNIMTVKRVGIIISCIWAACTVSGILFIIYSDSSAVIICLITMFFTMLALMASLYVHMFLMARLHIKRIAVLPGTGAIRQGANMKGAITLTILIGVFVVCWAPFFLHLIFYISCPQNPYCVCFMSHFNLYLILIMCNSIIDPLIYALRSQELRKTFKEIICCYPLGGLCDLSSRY

agonist/antagonist status as to MC3-R [2]: inactive | EC50 [3]: > 1000 nM | Ki [4]: 0.03 nM | Ki [6]: 5680 nM | Ki [7]: 2 nM
Substance: Ac-cyclo(-Asp-Trp-D-Nal 2-Arg-Nal 2-Lys)-NH2 [Example 11]
increase in food intake [1]: 8% | average increase in food intake ([5]; 0.1 nmol): 4% | average increase in food intake ([5]; 0.3 nmol): 18% | average increase in food intake ([5]; 1.0 nmol): 20%
